The record followed here is publication PMC6188150, “A small molecule regulator of tissue transglutaminase conformation inhibits the malignant phenotype of cancer cells” (Oncotarget, 2018).

Each structure is given as a SMILES string.

The assay has as its target T1, tissue transglutaminase (tTG) (Homo sapiens, UniProt P21980).
T1 construct: gene TGM2; recombinant tTG
T1 sequence (P21980 2-687): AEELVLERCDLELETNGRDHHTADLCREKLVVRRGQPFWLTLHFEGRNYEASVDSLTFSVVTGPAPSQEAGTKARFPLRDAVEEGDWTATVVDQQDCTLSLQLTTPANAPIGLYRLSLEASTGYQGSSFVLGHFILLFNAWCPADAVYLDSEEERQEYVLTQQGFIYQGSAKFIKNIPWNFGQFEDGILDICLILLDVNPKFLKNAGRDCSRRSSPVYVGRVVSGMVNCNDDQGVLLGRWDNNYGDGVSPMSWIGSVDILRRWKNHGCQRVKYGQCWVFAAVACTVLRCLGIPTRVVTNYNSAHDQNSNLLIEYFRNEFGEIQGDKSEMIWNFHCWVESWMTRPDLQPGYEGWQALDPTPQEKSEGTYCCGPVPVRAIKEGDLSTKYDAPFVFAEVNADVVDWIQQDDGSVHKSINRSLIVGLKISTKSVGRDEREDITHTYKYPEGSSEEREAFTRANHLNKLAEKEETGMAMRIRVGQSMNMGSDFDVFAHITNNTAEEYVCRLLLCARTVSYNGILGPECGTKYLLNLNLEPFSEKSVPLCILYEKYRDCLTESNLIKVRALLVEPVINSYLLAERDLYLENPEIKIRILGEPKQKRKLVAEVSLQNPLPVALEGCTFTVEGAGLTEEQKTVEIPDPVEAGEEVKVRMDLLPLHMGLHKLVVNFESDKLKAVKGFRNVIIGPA
Briefly: bodipy-GTP-γS fluorescence binding assay after CaCl2 then EDTA; also BPA/NNDC crosslinking inhibition and trypsin susceptibility.

`Cc1ccc(N/C=C2/C(=O)NC(=O)N(c3ccccc3)C2=O)cc1CN1C(=O)c2ccccc2C1=O` [TTGM 5826]: the EC50 (commonly the concentration that produces a half-maximal response) stood at 20 µM. This counts as double-digit micromolar.
